In patent publication US5206428A, “Tetrahydronaphthalene derivatives and preparation thereof” (Tanabe Seiyaku Co., Ltd., priority 1989, dated 1993):
Converted amounts (≈) assume the structure as drawn.

The compounds below were run on U-46619-induced platelet aggregation (assay: U-46619-induced platelet aggregation-inhibiting activity (in vitro)). Settings: human platelet-rich plasma, 4×10^5 cells/mm^3, U-46619 solution (0.2 μg/ml), 37° C., Born's method.
Type: cell-based
Protocol: The bottom layer was further centrifuged to give platelet-poor plasma ("PPP") as the supernatant. PRP was diluted with PPP so that the platelet count was 4×10^5 cells/mm^3. 25 μl of a test compound solution was added to 200 μl of said diluted PRP.

IC50 [µg/mL]	SMILES
0.2 (≈ 0.465 µM)	Cc1ccc(S(=O)(=O)NC2CCc3cc(CC(=O)NCCC(=O)O)ccc3C2)cc1 (stereo not drawn) [Compound No. 1]
0.7 (≈ 1.51 µM)	O=C(O)CCCNC(=O)Cc1ccc2c(c1)CCC(NS(=O)(=O)c1ccc(Cl)cc1)C2 (stereo not drawn) [Compound No. 3]

SMILES	IC50 [µg/mL]
O=C([O-])Cc1ccc2c(c1)CCC(NS(=O)(=O)c1ccc(Cl)cc1)C2.[Na+] (stereo not drawn) [Compound No. 2, Sodium 6(4-chlorophenyl)sulfonylamino-5,6,7,8-tetrahydronaphthalene-2-acetate]	0.06
